How the values were obtained:
[1] = target: T1, Bifunctional epoxide hydrolase 2 (Homo sapiens, UniProt P34913); assay: Inhibition of sEH using (3-Phenyl-oxiranyl)-acetic acid cyano-(6-methoxy-naphthalen-2-yl)-methyl ester) as substrate incubated for 15 mins prior to substrate addition measured every min for 15 mins by fluorimetric analysis
T1 sequence (P34913 whole entry): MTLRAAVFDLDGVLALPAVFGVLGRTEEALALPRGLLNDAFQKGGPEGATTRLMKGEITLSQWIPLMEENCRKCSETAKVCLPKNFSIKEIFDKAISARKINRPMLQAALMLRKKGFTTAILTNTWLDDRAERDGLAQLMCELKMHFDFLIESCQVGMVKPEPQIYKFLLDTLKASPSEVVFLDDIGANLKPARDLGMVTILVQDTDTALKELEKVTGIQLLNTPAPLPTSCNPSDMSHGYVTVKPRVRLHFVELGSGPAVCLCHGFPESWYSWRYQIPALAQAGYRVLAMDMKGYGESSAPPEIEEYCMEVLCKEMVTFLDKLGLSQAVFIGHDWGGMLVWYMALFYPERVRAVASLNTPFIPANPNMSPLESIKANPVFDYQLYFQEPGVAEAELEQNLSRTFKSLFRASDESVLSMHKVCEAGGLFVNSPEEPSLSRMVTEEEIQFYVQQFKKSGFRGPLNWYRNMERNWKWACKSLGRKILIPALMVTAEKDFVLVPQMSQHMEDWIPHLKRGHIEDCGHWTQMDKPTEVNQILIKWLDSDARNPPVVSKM

[2] = Solubility of the compound at >100 uM; assay type: physicochemical
[3] = Solubility of the compound; assay type: physicochemical

IC50 [1] [µM] | Compound | further results
3.2 | O=C(Nc1cccc(Cl)c1)OCCCNS(=O)(=O)c1cccc([N+](=O)[O-])c1 | 
5.5 | O=C(Nc1cccc(O)c1)OCC1c2ccccc2-c2ccccc21 | 
 | Cc1cc(-c2cnc(NCCCc3ccccn3)nc2C(C)C)on1 | solubility [2]: Insoluble
 | NS(=O)(=O)c1ccc(CNc2ncc(-c3ccncc3)c(C3CC3)n2)cc1 | solubility [3]: Insoluble
25 | O=C(NCCCNc1ncc(-c2ccncc2)c(C2CC2)n1)c1ccccn1 | 
